# From US20250120924A1, “COMPOSITIONS OF TAURINE AND MALIC ACID AND METHODS OF MAKING THE COMPOSITIONS” (NutriScience Innovations LLC, priority 2023, published 2025)
# System: Wild-type nematodes
# Assay: Nematode lifespan/survival in microfluidic chips
# Assay type: in vivo
# Details: versus control, FIG. 4
# Experimental: EXAMPLE 8—Animal Studies: A nematode animal model was used to evaluate lifespan/survival and energy/activity. Wild-type nematodes were loaded into microfluidic chips and were fed […] E. coli OP50 in NGM buffer food source. The methods have been previously described. Nematode lifespan was measured by survival at standard 18 days, while nematode activity was measured at an optimum 15 days using a visual score. Dosing of 2:1 taurine to malic acid molar ratio composition (composition #4, Example 1) was made using the methodology described previously was at 200 micrograms/ml/day, with the solid composition being dissolved in the aqueous feed. This is equivalent to a human dose of 5 grams per day for these animals. The 5 gram per day human dose equivalent represents a dose of 3.26 grams of taurine and 1.74 grams of malic acid (2:1 molar ratio). The results were compared with taurine alone (human equivalent dose 3.26 grams), and malic acid alone (1.74 grams malic acid).
# Eighteen days is the typical survival time for nematodes. Eighteen days may be considered “old-age” for these animals. […] This unexpected synergistic effect has not been previously observed. […] Specific energy/activity levels of the neamtodes was measured at an optimum 15 days of life (which may be considered “middle-age”).
SMILES,"nematode survival at 18 days (malic acid alone, human equivalent dose 1.74 grams)","nematode survival at 18 days (taurine alone, human equivalent dose 3.26 grams)"
O=C(O)CC(O)C(=O)O (centres unmarked) [malic acid],did not improve survival times versus control,
"NCCS(=O)(=O)O [taurine, 2-aminoethanesulfonic acid]",,did not improve survival times versus control
